Test results: paper PMC8532147, “Dual Stimuli-Responsive Dynamic Covalent Peptide Tags: Toward Sequence-Controlled Release in Tumor-like Microenvironments” (Journal of the American Chemical Society, 2021)
Bridge positions count the residues as written; N and C are the ends. Square brackets hold non-standard residues; d marks the D form. Peptide text beside a SMILES is read from it. I, II: the chains in the order shown. Phe(4-B(OH)2) = N[C@@H](Cc1ccc(B(O)O)cc1)C(=O)O; Dopa = N[C@@H](Cc1ccc(O)c(O)c1)C(=O)O

Assays:
in vitro [1] = format: in vitro ADME; conditions: calf (bovine), cells or culture medium
Method: Next, the stability of 2Ox in glucose containing solutions were tested since it is known that phenyl boronic acids interact with sugars.[11]2Ox was incubated in glucose solution (1 g/mL) or […] DMEM cell media (1 g/mL), which was used in the subsequent cell studies. The analysis was performed for up to 3 days and quantitative analysis was obtained using single ion monitoring (SIM) of m/z of 2Ox (m/z = 664, 388) in LC-ESI-MS to improve sensitivity in detection (SI, Figure S20). Fmoc-Phe-OH was used as an internal standard. […] The amount of 2Ox decreased by around 20% in low glucose DMEM cell culture media after a day of incubation (SI, Figure S20). The decrease is presumably due to the disulfide exchange with free thiols inside the media (10% FCS and cysteine according to manufacturer’s specifications). Nevertheless, 2Ox is sufficiently stable to potential thiol exchange for subsequent biological studies.
(§1) The UV (280 nm) signals were integrated and normalized against the Fmoc-Phe standard as well as the SIM for 664 against the SIM of 388. The relative area was then plotted against the incubation time.
(§2) Figure S 20: Stability of 2Ox in glucose solution (GS) and low glucose cell media (LGM) detected by UV -Vis and ESI-MS. […]
(§3) expected due to free thiols in the media (FCS and cysteine).
(§4) 11. Stability in cytosol under oxidative/reductive conditions
(§5) Stability in liver cytosol […]

[2] = Stability under oxidative conditions (0.1% hydrogen peroxide); format: physicochemical; conditions: LC-MS SIM
Method: We further determined the stability of the hybridized sequences under oxidative conditions. The oxidized complex, 2Ox was incubated with 0.1% hydrogen peroxide ([…]). Aliquots were analyzed via LC-MS over different time intervals up to 60 min (SI, Figure S23) using SIM detection. Besides monitoring the decrease in the m/z of 2Ox, SIM also offers the possibility to identify degradation products and allowed us to map the chemical processes involved in the oxidative condition implemented. […] We observed complete conversion to compound 3 (Figure 6c,d). […]
12. Fluorescence quenching assay
Four stock solutions were prepared: 5 mM OSCSO, 2 μM DL488 -BSCSB in a phosphate buffer (100 mM, pH = 6.0, 2.5 mM TCEP) and 5 mM OSCSO, 2 µM DL488-BSCSB in a phosphate buffer (100 mM, pH = 7.4, 2.5 mM TCEP). […] FQA was measured immediately.
The procedure was repeated 3 times both for pH 6.0 and 7.4. Each point on the graph represents mean average of normalized fluorescence for one concentration from the series and error bars represent standard […]
The NMR spectra were recorded on a Bruker AVANCE III 850 MHz spectrometer with a 5 mm triple resonance TXI 1H/13C/15N probe equipped wit h a z-gradient. All spectra were measured at 298 K. The spectra were analyzed using Bruker TopSpin 3.6.1. […]

in vitro [3] = format: in vitro ADME; conditions: s9 or cytosol
Method: Such differences in the physiological concentration of GSH have been exploited for controlled release. Thus, the GSH-induced cleavage of 1 mM of 2Ox was probed by incubation in commercially available liver cytosols spiked with physiologically relevant concentrations of GSH:GSSG (1:0.025 and 10:0.25 mM). The analysis was performed for up to 60 min and quantitative analysis was obtained using SIM in LC-MS (2Ox, m/z = 1328, 664) with Fmoc-Phe-OH as an internal standard (SI, Figure S22). […] On the other hand, at a concentration of 10 mM (molar ratio 10:1) the reaction was slightly slower due to longer equilibration time. […] Therefore, although the oxidized complex is stable over a longer period in serum (Figure 6a), GSH release could be induced in cytosolic conditions in cancer cells (Figure 6b), which would be important for controlled release as a drug delivery system.
as §1, §2, §3, §4, §5

metabolised at 24 h (in vitro [1]): ~20% | starting material left ([2]; 1 mM in ammonium bicarbonate with 0.1% hydrogen peroxide (30 μM), after 10 min): no starting material is left | dissociation into the single peptide sequences ([2]; 0.1% hydrogen peroxide (30 μM), up to 60 min): did not dissociate | remaining at 10 min, 1 mM (in vitro [3]): 80%
Compound: NC(=O)[C@H](Cc1ccc(B(O)O)cc1)NC(=O)[C@H](CO)NC(=O)[C@H](CSSC[C@H](NC(=O)[C@H](CO)NC(=O)[C@@H](N)Cc1ccc(O)c(O)c1)C(=O)N[C@@H](CO)C(=O)N[C@@H](Cc1ccc(O)c(O)c1)C(N)=O)NC(=O)[C@H](CO)NC(=O)[C@@H](N)Cc1ccc(B(O)O)cc1 [2Ox] (I: H-[Phe(4-B(OH)2)]SCS[Phe(4-B(OH)2)]-NH2 / II: H-[Dopa]SCS[Dopa]-NH2; disulfide I:3-II:3)
